Measured values: patent US20080200454A1, “CARBON-LINKED TETRAHYDRO-PYRAZOLO-PYRIDINE MODULATORS OF CATHEPSIN S” (priority 2007, published 2008)
Like-named read-outs stand apart in the source and are kept apart here.

Target: Recombinant human cathepsin S (CatS) (Homo sapiens, UniProt P25774)
Assay: Recombinant human cathepsin S (CatS) inhibition assay, fluorogenic substrate Z-Valine-Valine-Arginine-AMC;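 also: Baculovirus-expressed CatS in pH 5.0 sodium acetate buffer with DTT and NaCl, fluorescence read each minute over 20 min, inhibition derived from rate slope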

Sequence of Recombinant human cathepsin S (CatS) (P25774 115-331): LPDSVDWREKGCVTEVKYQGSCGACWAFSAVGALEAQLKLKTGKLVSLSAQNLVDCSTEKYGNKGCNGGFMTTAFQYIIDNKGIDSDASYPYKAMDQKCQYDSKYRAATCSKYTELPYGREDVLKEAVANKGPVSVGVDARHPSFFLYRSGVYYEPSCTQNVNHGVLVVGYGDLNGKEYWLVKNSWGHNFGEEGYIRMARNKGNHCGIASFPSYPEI

IC50 [nM]	SMILES	IC50 (CatS IC50) [nM]
10	CN1CCC(C2CCN(C[C@H](O)Cn3nc(-c4ccc(Cl)c(C#Cc5ccc(Cl)cc5)c4)c4c3CCN(S(C)(=O)=O)C4)CC2)CC1 [Example 240, (2S)-1-[3-{4-Chloro-3-[(4-chlorophenyl)ethynyl]phenyl}-5-(methylsulfonyl)-4,5,6,7-tetrahydro-1H-pyrazolo[4,3-c]pyridin-1-yl]-3-(1′-methyl-4,4′-bipiperidin-1-yl)propan-2-ol]	
30	CC(C)(C)OC(=O)N1CCC(C2CCN(C[C@H](O)Cn3nc(-c4ccc(Cl)c(CCc5ccc(Cl)cc5)c4)c4c3CCN(C(N)=O)C4)CC2)CC1 [Example 242, 1,1-Dimethylethyl 1′-{(2S)-3-[5-(aminocarbonyl)-3-{4-chloro-3-[2-(4-chlorophenyl)ethyl]phenyl}-4,5,6,7-tetrahydro-1H-pyrazolo[4,3-c]pyridin-1-yl]-2-hydroxypropyl}-4,4′-bipiperidine-1-carboxylate]	
40	C[C@H]1COCCN1CCCn1nc(-c2ccc(Cl)c(CCc3ccc(CNCc4ccc(Cl)cc4)cc3)c2)c2c1CCN(C(=O)C(N)=O)C2 [Example 243, 2-[3-(4-Chloro-3-{2-[4-({[(4-chlorophenyl)methyl]amino}methyl)phenyl]ethyl}phenyl)-1-{3-[(3S)-3-methylmorpholin-4-yl]propyl}-1,4,6,7-tetrahydro-5H-pyrazolo[4,3-c]pyridin-5-yl]-2-oxoacetamide]	
10	CS(=O)(=O)N1CCc2c(c(-c3ccc(Cl)c(CCc4ccc(Cl)cc4)c3)nn2C[C@@H](O)CN2CCC(C3CCNCC3)CC2)C1 [Example 246, (2S)-1-(4,4′-Bipiperidin-1-yl)-3-[3-{4-chloro-3-[2-(4-chlorophenyl)ethyl]phenyl}-5-(methylsulfonyl)-4,5,6,7-tetrahydro-1H-pyrazolo[4,3-c]pyridin-1-yl]propan-2-ol]	
20	CN1CCC(C2CCN(C[C@H](O)Cn3nc(-c4ccc(Cl)c(CCc5ccc(Cl)cc5)c4)c4c3CCN(S(C)(=O)=O)C4)CC2)CC1 [Example 248, (2S)-1-[3-{4-Chloro-3-[2-(4-chlorophenyl)ethyl]phenyl}-5-(methylsulfonyl)-4,5,6,7-tetrahydro-1H-pyrazolo[4,3-c]pyridin-1-yl]-3-(1′-methyl-4,4′-bipiperidin-1-yl)propan-2-ol]	
40	NC(=O)N1CCc2c(c(-c3ccc(Cl)c(C#Cc4ccc(CNCc5ccc(Cl)cc5)cc4)c3)nn2C[C@@H](O)CN2CCSCC2)C1 [Example 251, (S)-3-(4-Chloro-3-{4-[(4-chloro-benzylamino)-methyl]-phenylethynyl}-phenyl)-1-(2-hydroxy-3-thiomorpholin-4-yl-propyl)-1,4,6,7-tetrahydro-pyrazolo[4,3-c]pyridine-5-carboxylic acid amide]	
70	C[C@H]1COCCN1C[C@H](O)Cn1nc(-c2ccc(Cl)c(C#Cc3ccc(CNCc4ccc(Cl)cc4)cc3)c2)c2c1CCN(C(N)=O)C2 [Example 257, 3-(4-Chloro-3-{4-[(4-chloro-benzylamino)-methyl]-phenylethynyl}-phenyl)-1-[(2S)-2-hydroxy-3-((3S)-3-methyl-morpholin-4-yl)-propyl]-1,4,6,7-tetrahydro-pyrazolo[4,3-c]pyridine-5-carboxylic acid amide]	
80	NC(=O)N1CCc2c(c(-c3ccc(Cl)c(C#Cc4ccc(CNCc5ccc(Cl)cc5)cc4)c3)nn2C[C@@H](O)CN2CCOCC2)C1 [Example 259, (S)-3-(4-Chloro-3-{4-[(4-chloro-benzylamino)-methyl]-phenylethynyl}-phenyl)-1-(2-hydroxy-3-morpholin-4-yl-propyl)-1,4,6,7-tetrahydro-pyrazolo[4,3-c]pyridine-5-carboxylic acid amide]	

The remaining lines, values behind:

SMILES	IC50 [nM]	IC50 (CatS IC50) [nM]
NC(=O)N1CCc2c(c(-c3ccc(Cl)c(C#Cc4ccc(Cl)cc4)c3)nn2C[C@@H](O)CN2CCC(C3CCNCC3)CC2)C1 [Example 238, 1-[(2S)-3-(4,4′-Bipiperidin-1-yl)-2-hydroxypropyl]-3-{4-chloro-3-[(4-chlorophenyl)ethynyl]phenyl}-1,4,6,7-tetrahydro-5H-pyrazolo[4,3-c]pyridine-5-carboxamide]	3	
CC(C)CC#Cc1cc(-c2nn(C[C@@H](O)CN3CCC(C4CCNCC4)CC3)c3c2CN(S(C)(=O)=O)CC3)ccc1Cl [Example 239, (2S)-1-(4,4′-Bipiperidin-1-yl)-3-{3-[4-chloro-3-(4-methylpent-1-yn-1-yl)phenyl]-5-(methylsulfonyl)-4,5,6,7-tetrahydro-1H-pyrazolo[4,3-c]pyridin-1-yl}propan-2-ol]		610
CC(=O)N1CCC(C2CCN(C[C@H](O)Cn3nc(-c4ccc(Cl)c(C#Cc5ccc(Cl)cc5)c4)c4c3CCN(S(C)(=O)=O)C4)CC2)CC1 [Example 241, (2S)-1-(1′-Acetyl-4,4′-bipiperidin-1-yl)-3-[3-{4-chloro-3-[(4-chlorophenyl)ethynyl]phenyl}-5-(methylsulfonyl)-4,5,6,7-tetrahydro-1H-pyrazolo[4,3-c]pyridin-1-yl]propan-2-ol]	30	
C[C@H]1COCCN1CCCn1nc(-c2ccc(Cl)c(CCc3ccc(CNCc4ccc(Cl)cc4)cc3)c2)c2c1CCN(C(N)=O)C2 [Example 244, 3-(4-Chloro-3-{2-[4-({[(4-chlorophenyl)methyl]amino}methyl)phenyl]ethyl}phenyl)-1-{3-[(3S)-3-methylmorpholin-4-yl]propyl}-1,4,6,7-tetrahydro-5H-pyrazolo[4,3-c]pyridine-5-carboxamide]		60
CC(C)(C)OC(=O)N1CCC(C2CCN(C[C@H](O)Cn3nc(-c4ccc(Cl)c(CCc5ccc(Cl)cc5)c4)c4c3CCN(S(C)(=O)=O)C4)CC2)CC1 [Example 245, 1,1-Dimethylethyl 1′-{(2S)-3-[3-{4-chloro-3-[2-(4-chlorophenyl)ethyl]phenyl}-5-(methylsulfonyl)-4,5,6,7-tetrahydro-1H-pyrazolo[4,3-c]pyridin-1-yl]-2-hydroxypropyl}-4,4′-bipiperidine-1-carboxylate]	30	
CC(=O)N1CCC(C2CCN(C[C@H](O)Cn3nc(-c4ccc(Cl)c(CCc5ccc(Cl)cc5)c4)c4c3CCN(S(C)(=O)=O)C4)CC2)CC1 [Example 247, (2S)-1-(1′-Acetyl-4,4′-bipiperidin-1-yl)-3-[3-{4-chloro-3-[2-(4-chlorophenyl)ethyl]phenyl}-5-(methylsulfonyl)-4,5,6,7-tetrahydro-1H-pyrazolo[4,3-c]pyridin-1-yl]propan-2-ol]		70
NC(=O)C(=O)N1CCc2c(c(-c3ccc(Cl)c(C#Cc4ccc(CNCc5ccc(Cl)cc5)cc4)c3)nn2C[C@@H](O)CN2CCSCC2)C1 [Example 249, (S)-2-[3-(4-Chloro-3-{4-[(4-chloro-benzylamino)-methyl]-phenylethynyl}-phenyl)-1-(2-hydroxy-3-thiomorpholin-4-yl-propyl)-1,4,6,7-tetrahydro-pyrazolo[4,3-c]pyridin-5-yl]-2-oxo-acetamide]	50	
NC(=O)C(=O)N1CCc2c(c(-c3ccc(Cl)c(C#Cc4ccc(CNCc5ccc(Cl)cc5)cc4)c3)nn2C[C@H](O)CN2CCSCC2)C1 [Example 250, (R)-2-[3-(4-Chloro-3-{4-[(4-chloro-benzylamino)-methyl]-phenylethynyl}-phenyl)-1-(2-hydroxy-3-thiomorpholin-4-yl-propyl)-1,4,6,7-tetrahydro-pyrazolo[4,3-c]pyridin-5-yl]-2-oxo-acetamide]		80
NC(=O)N1CCc2c(c(-c3ccc(Cl)c(C#Cc4ccc(CNCc5ccc(Cl)cc5)cc4)c3)nn2C[C@H](O)CN2CCSCC2)C1 [Example 252, (R)-3-(4-Chloro-3-{4-[(4-chloro-benzylamino)-methyl]-phenylethynyl}-phenyl)-1-(2-hydroxy-3-thiomorpholin-4-yl-propyl)-1,4,6,7-tetrahydro-pyrazolo[4,3-c]pyridine-5-carboxylic acid amide]		110
NC(=O)C(=O)N1CCc2c(c(-c3ccc(Cl)c(C#Cc4ccc(CNCc5ccc(Cl)cc5)cc4)c3)nn2C[C@@H](O)CN2CCOCC2)C1 [Example 253, (S)-2-[3-(4-Chloro-3-{4-[(4-chloro-benzylamino)-methyl]-phenylethynyl}-phenyl)-1-(2-hydroxy-3-morpholin-4-yl-propyl)-1,4,6,7-tetrahydro-pyrazolo[4,3-c]pyridin-5-yl]-2-oxo-acetamide]	60	
NC(=O)C(=O)N1CCc2c(c(-c3ccc(Cl)c(C#Cc4ccc(CNCc5ccc(Cl)cc5)cc4)c3)nn2C[C@H](O)CN2CCOCC2)C1 [Example 254, (R)-2-[3-(4-Chloro-3-{4-[(4-chloro-benzylamino)-methyl]-phenylethynyl}-phenyl)-1-(2-hydroxy-3-morpholin-4-yl-propyl)-1,4,6,7-tetrahydro-pyrazolo[4,3-c]pyridin-5-yl]-2-oxo-acetamide]		240
C[C@H]1COCCN1C[C@H](O)Cn1nc(-c2ccc(Cl)c(C#Cc3ccc(CNCc4ccc(Cl)cc4)cc3)c2)c2c1CCN(C(=O)C(N)=O)C2 [Example 255, 2-{3-(4-Chloro-3-{4-[(4-chloro-benzylamino)-methyl]-phenylethynyl}-phenyl)-1-[(2S)-2-hydroxy-3-((3S)-3-methyl-morpholin-4-yl)-propyl]-1,4,6,7-tetrahydro-pyrazolo[4,3-c]pyridin-5-yl}-2-oxo-acetamide]		70
C[C@H]1COCCN1C[C@@H](O)Cn1nc(-c2ccc(Cl)c(C#Cc3ccc(CNCc4ccc(Cl)cc4)cc3)c2)c2c1CCN(C(=O)C(N)=O)C2 [Example 256, 2-{3-(4-Chloro-3-{4-[(4-chloro-benzylamino)-methyl]-phenylethynyl}-phenyl)-1-[(2R)-2-hydroxy-3-((3S)-3-methyl-morpholin-4-yl)-propyl]-1,4,6,7-tetrahydro-pyrazolo[4,3-c]pyridin-5-yl}-2-oxo-acetamide]		50
CS(=O)(=O)N1CCc2c(c(-c3ccc(Cl)c(C#Cc4ccc(CNCc5ccc(Cl)cc5)cc4)c3)nn2C[C@H](O)CN2CCSCC2)C1 [Example 262, (R)-1-[3-(4-Chloro-3-{4-[(4-chloro-benzylamino)-methyl]-phenylethynyl}-phenyl)-5-methanesulfonyl-4,5,6,7-tetrahydro-pyrazolo[4,3-c]pyridin-1-yl]-3-thiomorpholin-4-yl-propan-2-ol]		120
